Data published in PMC6828666, “Discovery of holoenzyme-disrupting chemicals as substrate-selective CK2 inhibitors” (Scientific Reports, 2019).

Tested on: CK2β-depleted MCF10A cells (ΔCK2β)
Test: Cell growth inhibition in CK2β-depleted cells (IncuCyte)
Format: cell-based, human
Conditions: 50 μM; ΔCK2β vs WT MCF10A
Procedure: Cells grown on 96-well flat-bottomed plates (Corning Falcon) were tracked using an Essen IncuCyte Zoom live-cell microscopy instrument, an automated live cell imager with high-throughput capabilities and built-in data analysis. Experiments were conducted at 37 °C and 5% CO2. The software incorporated into the IncuCyte Zoom was used to analyze the images.
MCF10A and MDA-MB231 cells were seeded into 96-well plates at a density (1 × 10^4 and 2 × 10^4 cells/well, respectively) and allowed to attach overnight. Bright field images were captured every 3 h for the duration of the experiment. The detection software was calibrated specifically for MCF10A and MDA-MB231 to ensure accurate distinction of cells from empty space. Cell proliferation data were obtained by the cell confluence increment in each of the treatments and expressed as percentage relative to that of control cells.
Fig. S9. […] (a) MCF10A cells were incubated with increasing concentrations of 6 for 24 h. (b) Inset: western blot analysis of CK2 subunits in parental MCF10A cells (WT) or CK2β knockdown MCF10A cells (∆CK2β). Uncropped blots are shown in Supplementary Fig. S16. MCF10A WT (r,p) or MCF10A ∆CK2β (○,●) were incubated with DMSO (r,○) or 50 μM 6 (p,●) for the indicated time. Cell growth was monitored using an Essen IncuCyte Zoom live-cell microscopy incubator. Images were captured every 15 min for the duration of the experiment. […]

COc1[nH]c2ccc(F)cc2c1C(=O)OCC1CCN(CCNS(=O)(=O)c2ccccc2)CC1.Cl [Compound 6]
growth inhibition in CK2β-depleted cells compared with WT cells: twice more pronounced
